Results published in patent publication US20230121179A1, “SKIN BARRIER FUNCTION ENHANCER” (Shiseido Company, Ltd., priority 2020, published 2023).
Several values for one entry are separate records, joined by “and”; a condition that tells them apart may be missing. Equal entries are not always repeated.

Assays:
TGase1 = test: Microarray gene expression in keratinocytes after UV irradiation through wavelength conversion substance; format: cell-based; set-up: key: O represents the gene whose expression is significantly changed; X represents the gene whose expression is not changed; settings: Normal Human Epidermal Keratinocytes, UV 100 mJ/cm^2 through wavelength conversion substance solution, no direct contact, 24 h incubation
Excerpt: (§1) Lumate G is a zinc oxide phosphor obtained by doping ZnO with a sulfur-containing compound and then firing as described in International Patent Publication No. 2018/004006, the absorption spectrum having a peak wavelength at 365 nm and the emission spectrum having a peak wavelength at 510 nm. • (4) Magnesium titanate phosphor Lumate R by Sakai Chemical Industry Co., Ltd. was used. Lumate R is a magnesium titanate phosphor obtained by doping MgTiO3 with manganese, the absorption spectrum having a peak wavelength at 365 nm and the emission spectrum having peak wavelengths in the range of 660 to 680 nm. • The wavelength conversion substances of (1) and (2) were dissolved in water to prepare solutions at concentrations of 1% and 5%. • The wavelength conversion substances of (3) and (4) were dispersed in alcohol to prepare 5% and 10% dispersions.
(§2) Cell samples were prepared in the following manner. • 1. Human human skin keratinocytes (Normal Human Epidermal Keratinocytes, PromoCell) were used. A cell suspension (1 mL) stored with liquid nitrogen was placed in a hot water bath (37° C.) and thawed until small ice pellets remained, and then diluted with 9 mL of warm KGM medium. • 2. The diluted suspension was gently mixed and transferred to a T75 flask, and incubated overnight at 37° C. • 3. On the following day, the medium was exchanged with 10 mL of fresh medium. • 4. The medium was periodically exchanged (once every 2 - 3 days), while continuing growth of the cells. During this time, a microscope was used to observe the cells and to confirm that the cells had proliferated with the proper form. • 5. Once the cells reached approximately 80% confluence, they were subcultured. • 6. Subculturing of the cells was carried out by rinsing and aspirating once in 10 mL of warm PBS. • 7. 5 mL of warm trypsin was added to the T75 flask to cover the bottom of the flask with the trypsin solution, and the mixture was aspirated after standing for 1 minute at room temperature. • 8. The flask was set in an oven at 37° C. for 5 minutes (maximum) for keratinocytes. A microscope was used to observe the cells, confirming that they were small and elliptical. • 9. The sides of the T75 flask were then lightly tapped to free the cells. A microscope was used to observe the cells and confirm that they were freely moving. • 10. The keratinocytes were resuspended in 5 mL of warm trypsin neutralizing solution, transferred to a sterilized 50 mL Falcon tube. The flask was further rinsed with 5 mL of warm FGM and added to the Falcon tube, to ensure transfer of all of the cells. • 11.. The cells were centrifuged at […] for 5 minutes (4° C.), and the supernatant was carefully removed while avoiding disturbing the cell pellet. • 12. The keratinocytes were resuspended in KGM at a concentration of 2 × 10^4 cells/well (500 µL), and plated in collagen coated glass bottom 4-well chamber slide. • 13. The medium was replaced every two or three days, and cells were proliferated until they reached 60 to 70% confluence (differing for the type of experiment). • 14. At 24 hours before irradiation, the medium was changed to non-supplemented medium.
(§3) • 1. At least 30 minutes prior to irradiation, the power source of a solar simulator was activated to warm up the lamp. The solar simulator used was a UG11 filter. A UG11 filter is a filter that allows passage of UVB alone while cutting light of other wavelengths. […] The temperature control plate was turned on and set to 33° C. • 3. The cells prepared in Experiment 1-2 were rinsed once with warm PBS. • 4. A 0.5 mL portion of warmed Martinez solution (145 mM NaCl, 5.5 mM KC1, 1.2 mM MgCl2·6H2O, 1.2 mM NaH2PO4·2H2O, 7.5 mM HEPES, 1 mM CaCl2 and 10 mM D-glucose) was added to each well. • 5. […] The irradiation was carried out to a total radiation dose of 100 mJ/cm^2. […]

CASP14 = test: as above; format: cell-based; set-up: key: O represents the gene whose expression is significantly changed; X represents the gene whose expression is not changed; settings: Normal Human Epidermal Keratinocytes, UV 100 mJ/cm^2 through wavelength conversion substance solution, no direct contact, 24 h incubation
Excerpt: as §1, §2, §3

FLG = test: as above; format: cell-based; set-up: key: O represents the gene whose expression is significantly changed; X represents the gene whose expression is not changed; settings: Normal Human Epidermal Keratinocytes, UV 100 mJ/cm^2 through wavelength conversion substance solution, no direct contact, 24 h incubation
Excerpt: as §1, §2, §3

INV = test: as above; format: cell-based; set-up: key: O represents the gene whose expression is significantly changed; X represents the gene whose expression is not changed; settings: Normal Human Epidermal Keratinocytes, UV 100 mJ/cm^2 through wavelength conversion substance solution, no direct contact, 24 h incubation
Excerpt: as §1, §2, §3

SMPD1 = test: as above; format: cell-based; set-up: key: O represents the gene whose expression is significantly changed; X represents the gene whose expression is not changed; settings: Normal Human Epidermal Keratinocytes, UV 100 mJ/cm^2 through wavelength conversion substance solution, no direct contact, 24 h incubation
Excerpt: as §1, §2, §3

LOR = test: as above; format: cell-based; set-up: key: O represents the gene whose expression is significantly changed; X represents the gene whose expression is not changed; settings: Normal Human Epidermal Keratinocytes, UV 100 mJ/cm^2 through wavelength conversion substance solution, no direct contact, 24 h incubation
Excerpt: as §1, §2, §3

CDSN = test: as above; format: cell-based; set-up: key: O represents the gene whose expression is significantly changed; X represents the gene whose expression is not changed; settings: Normal Human Epidermal Keratinocytes, UV 100 mJ/cm^2 through wavelength conversion substance solution, no direct contact, 24 h incubation
Excerpt: as §1, §2, §3

[1] = Absorption and emission spectra of wavelength conversion substances; format: physicochemical
Excerpt: as §1

Molecule	TGase1 gene expression change (TGase1)	CASP14 gene expression change (CASP14)	FLG gene expression change (FLG)	INV gene expression change (INV)	SMPD1 gene expression change (SMPD1)	LOR gene expression change (LOR)	CDSN gene expression change (CDSN)	absorption spectrum peak wavelength [1]	emission spectrum peak wavelength [1]
C-phycocyanin [Lina Blue]	O	O	O	O	O	O	O	350 nm	640 nm and 700 nm
Cc1cc2nc3c(=O)[nH]c(=O)nc-3n(C[C@H](O)[C@H](O)[C@H](O)CO)c2cc1C [Vitamin B2, Riboflavin, reference compound]	O	O	O	O	O	X	O	445 nm	530 nm
